Values quoted from earlier work in patent US20040176344A1, “METHOD TO TREAT PATIENTS WITH AMYOTROPHIC LATERAL SCLEROSIS AND THE LIKE” (priority 2004, published 2004).

Columns and labels:
[1] = acute intermittent porphyria; Khanderia 1986
[2] = test system: mouse of ALS; conditions: mouse model of ALS; J Neurochem 2003

SMILES	adverse effect that precludes prophylactic use [1]	effect on disease progression [2]
C=CC1=C(C)c2cc3[n-]c(cc4[n-]c(cc5nc(cc1n2)C(C)=C5C=C)c(C)c4CCC(=O)O)c(CCC(=O)O)c3C.O.[Fe+2] [hematin]	causes circulatory collapse	
Cl.O=C([O-])c1ccc(-c2c3nc(c(-c4ccc(C(=O)O)cc4)c4nc(c(-c5ccc(C(=O)O)cc5)c5ccc([nH]5)c(-c5ccc(C(=O)[O-])cc5)c5ccc2[n-]5)C=C4)C=C3)cc1.[Fe+3] [FeTCPP]		helpful in slowing disease progression
